Measurements reported in US10988477B2 (Merck Patent GmbH, priority 2018, dated 2021).

Assays:
[1] = system: primary human pan T-cells; experiment: Human IL-2 assay for GCN2 inhibition (IL-2 secretion by T cells in low amino acid condition); format: cell-based; details: T-cell; IL-2 secretion from human T cells, anti-CD3/CD28 stimulation, 96 hours; read-out: IL2/T-cell EC50
Excerpt: Tumor microenvironment is profoundly immuno-suppressive. This may be attributed to the depletion of amino acids (like arginine and tryptophan) which triggers the activation of GCN2 in immune cells, including T cell and myeloid cells. In T cells, activation of GCN2 leads to reduce effector functions of CD8 T cells and induction and/or maintenance of immuno-suppressive T-regs. Inhibition of that immuno-suppressive response by GCN2 inhibitors enables an anti-cancer immune response by activating effector T-cells. Herein we describe an in-vitro system we established using human T-cells stimulated in low amino acid condition in order to engage the GCN2 biology. The method described involves the modulation of IL-2 levels secreted by human T cells in responses to the GCN2 inhibitors disclosed herein.
Amino acid-free RPMI was reconstituted with all but one of the amino acids found in standard RMPI (e.g. Arginine, Tryptophan), 10% charcoal-stripped fetal bovine serum, 100 Units/mL penicillin and 0.1 mg/mL streptomycin. Primary human pan T-cells were isolated using Pan T Cell Isolation Kit, human (MACS Miltenyi biotech Cat #Order no. 130-096-535) from apheresis cones and 5×104 pan T-cells per well. The purified T cells are seeded in Nunc™ 96-Well Polystyrene Round Bottom Microwell Plates (the cells are rested in No TRP media in a 15 ml falcon tube in the incubator for 30-45 minutes while titrations for tryptophan and the GCN2 inhibitor compound are made) A plate matrix was developed to titrate both a GCN2 inhibitor and the amino acid of interest ranging from “No Amino Acid” condition, up to the concentration found in the regular RPMI media (20 μM for TRP and 950 μM for Arginine). The cells were incubated for 30 min at 37° C. with the GCN2 inhibitor and then stimulated with 5×104 anti-CD3/CD28 Dynabeads® per well. After 96 hours of incubation the IL-2 level in the supernatant were measured using ELISA (R&D systems Cat #DY202 (Human IL-2 DuoSet ELISA). Data were plotted in GraphPad Prism software and EC50 is calculated.

[2] = biological target: GCN2 kinase (Homo sapiens, UniProt Q9P2K8); experiment: GCN2 enzyme inhibition assay (Transcreener ADP2 fluorescence polarization); format: biochemical; details: 280 μM ATP, 4 nM GCN2 kinase
In short: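 Human GCN2 (4 nM) preincubated 10 min with compound (0–8 μM) and 200 μM (RS)7 peptide in Tris-HCl pH 7.5, NaCl, MgCl2, DTT. Reaction started with 280 μM ATP, run 1 h at 25 °C. ADP detected by Transcreener fluorescence polarization. IC50 and Ki(app) fitted by tight-binding algorithm.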

[3] = biological target: intracellular GCN2 (phosphorylation of the GCN2 substrate eIF2α) (Homo sapiens, UniProt Q9P2K8); experiment: GCN2 cellular inhibition assay (AlphaScreen SureFire P-eIF2α Ser51, borrelidin-treated U2OS cells); format: cell-based; details: compounds of Formula IV; biomarker assay, phosphorylated eIF2α Ser51 in borrelidin-treated U2OS cells
In short: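 Phospho-eIF2α (Ser51) in lysates was quantified by AlphaScreen SureFire after a 1 h, 37 °C treatment of U2OS cells with 10 μM borrelidin and compound at 4-fold dilutions starting from 40 μM final. Inhibition expressed in percent against wells stimulated by borrelidin alone.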

Sequence of intracellular GCN2 (phosphorylation of the GCN2 substrate eIF2α) (Q9P2K8 whole entry): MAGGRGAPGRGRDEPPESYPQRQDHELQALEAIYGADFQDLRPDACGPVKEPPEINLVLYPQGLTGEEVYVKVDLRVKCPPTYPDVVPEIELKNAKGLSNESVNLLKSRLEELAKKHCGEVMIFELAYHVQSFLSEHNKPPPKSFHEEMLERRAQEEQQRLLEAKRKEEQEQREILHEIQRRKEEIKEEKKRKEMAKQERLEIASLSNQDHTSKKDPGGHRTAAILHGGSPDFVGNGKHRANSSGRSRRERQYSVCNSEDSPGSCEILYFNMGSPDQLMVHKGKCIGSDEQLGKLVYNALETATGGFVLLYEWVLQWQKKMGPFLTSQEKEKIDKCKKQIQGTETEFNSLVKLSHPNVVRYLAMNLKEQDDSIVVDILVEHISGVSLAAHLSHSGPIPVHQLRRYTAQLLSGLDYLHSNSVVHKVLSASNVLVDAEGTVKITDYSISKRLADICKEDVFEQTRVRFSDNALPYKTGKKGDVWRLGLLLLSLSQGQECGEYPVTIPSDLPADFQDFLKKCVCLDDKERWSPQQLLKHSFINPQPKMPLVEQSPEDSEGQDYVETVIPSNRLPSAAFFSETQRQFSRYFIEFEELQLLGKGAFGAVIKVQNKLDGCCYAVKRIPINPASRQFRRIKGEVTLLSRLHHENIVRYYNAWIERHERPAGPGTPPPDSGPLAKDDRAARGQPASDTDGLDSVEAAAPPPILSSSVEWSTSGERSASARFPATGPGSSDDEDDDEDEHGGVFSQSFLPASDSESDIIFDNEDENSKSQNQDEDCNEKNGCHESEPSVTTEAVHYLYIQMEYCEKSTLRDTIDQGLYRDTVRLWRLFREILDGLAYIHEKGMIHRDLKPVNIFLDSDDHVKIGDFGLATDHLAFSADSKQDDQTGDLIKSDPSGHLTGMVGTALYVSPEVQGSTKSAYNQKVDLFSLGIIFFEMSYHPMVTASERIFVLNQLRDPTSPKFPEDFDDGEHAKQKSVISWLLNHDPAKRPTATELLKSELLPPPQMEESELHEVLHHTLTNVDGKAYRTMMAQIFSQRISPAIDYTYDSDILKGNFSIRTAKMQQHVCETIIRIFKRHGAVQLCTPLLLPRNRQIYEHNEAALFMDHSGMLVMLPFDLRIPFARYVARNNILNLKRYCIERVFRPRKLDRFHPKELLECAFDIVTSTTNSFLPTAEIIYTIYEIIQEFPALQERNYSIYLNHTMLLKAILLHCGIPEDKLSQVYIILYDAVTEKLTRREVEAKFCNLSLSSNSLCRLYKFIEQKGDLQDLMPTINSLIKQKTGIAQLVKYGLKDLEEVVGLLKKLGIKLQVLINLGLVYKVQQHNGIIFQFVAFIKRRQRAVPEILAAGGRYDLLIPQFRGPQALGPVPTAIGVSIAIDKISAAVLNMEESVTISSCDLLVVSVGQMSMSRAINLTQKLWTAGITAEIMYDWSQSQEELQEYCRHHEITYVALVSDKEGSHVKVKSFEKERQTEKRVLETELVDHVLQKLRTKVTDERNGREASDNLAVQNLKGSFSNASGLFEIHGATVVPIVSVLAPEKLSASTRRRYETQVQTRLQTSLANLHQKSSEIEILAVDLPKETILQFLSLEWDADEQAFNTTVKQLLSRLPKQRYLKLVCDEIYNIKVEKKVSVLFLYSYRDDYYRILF
Sequence of GCN2 kinase (Q9P2K8 whole entry): as above

SMILES | EC50 [1] | IC50 ([2]; compounds of Formula II) | IC50 [3] | IC50 ([2]; compounds of Formula IV)
C[C@H]1[C@@H](CNS(C)(=O)=O)CCCN1c1cc(-c2cnc3ccc(C(F)F)nn23)ncn1 (stereo in doubt) [II-755, N-(((2S,3R)-1-(6-(6-(difluoromethyl)imidazo[1,2-b]pyridazin-3-yl)pyrimidin-4-yl)-2-methylpiperidin-3-yl)methyl)methanesulfonamide] | 0.1 to 0.5 µM | > 1 µM |  | 
C[C@H]1C[C@@H](NS(C)(=O)=O)CN(c2cc(-c3cnc4ccc(C(F)F)nn34)ncn2)C1 (stereo in doubt) [II-777, N-((3R,5S)-1-(6-(6-(difluoromethyl)imidazo[1,2-b]pyridazin-3-yl)pyrimidin-4-yl)-5-methylpiperidin-3-yl)methanesulfonamide] | 0.1 to 0.5 µM |  |  | 
C[C@H]1CC(F)(F)C(CNS(C)(=O)=O)CN1c1cc(-c2cnc3ccc(C(F)F)nn23)ncn1 (stereo in doubt) [II-778, N-(((3R,6S)-1-(6-(6-(difluoromethyl)imidazo[1,2-b]pyridazin-3-yl)pyrimidin-4-yl)-4,4-difluoro-6-methylpiperidin-3-yl)methyl)methanesulfonamide] | > 0.5 µM |  |  | 
Cc1n[nH]cc1[C@@H]1CN(c2ccnc(-c3cnc4cnc(C(F)(F)F)cn34)n2)C[C@H](C)O1 (stereo in doubt) [IV-763, (2S,6R)-2-methyl-6-(3-methyl-1H-pyrazol-4-yl)-4-(2-(6-(trifluoromethyl)imidazo[1,2-a]pyrazin-3-yl)pyrimidin-4-yl)morpholine] | 0.1 to 0.5 µM |  | < 0.5 µM | < 0.01 µM
CS(=O)(=O)NC[C@@H]1CN(c2cc(-c3cnc4ccc(C(F)F)nn34)ncn2)C[C@H](C(F)(F)F)O1 [II-771, N-(((2S,6R)-4-(6-(6-(difluoromethyl)imidazo[1,2-b]pyridazin-3-yl)pyrimidin-4-yl)-6-(trifluoromethyl)morpholin-2-yl)methyl)methanesulfonamide] | 0.1 to 0.5 µM | 0.01 to 1 µM |  | 
C[C@H](NS(C)(=O)=O)[C@@H]1CN(c2cc(-c3cnc4ccc(C(F)F)nn34)ncn2)CCO1 [II-772] | 0.1 to 0.5 µM | 0.01 to 1 µM |  | 
C[C@H]1CN(c2cc(-c3cnc4ccc(C(F)F)nn34)ncn2)C[C@@H](CNS(C)(=O)=O)C1(F)F [II-773, N-(((3S,5S)-1-(6-(6-(difluoromethyl)imidazo[1,2-b]pyridazin-3-yl)pyrimidin-4-yl)-4,4-difluoro-5-methylpiperidin-3-yl)methyl)methanesulfonamide] | < 0.1 µM |  |  | 
CS(=O)(=O)NC[C@H]1C[C@@H](C2CC2)CN(c2cc(-c3cnc4ccc(C(F)F)nn34)ncn2)C1 [II-774, N-(((3S,5S)-5-cyclopropyl-1-(6-(6-(difluoromethyl)imidazo[12-b]pyridazin-3-yl)pyrimidin-4-yl)piperidin-3-yl)methyl)methanesulfonamide] | < 0.1 µM |  |  | 
CS(=O)(=O)NCC1CN(c2cc(-c3cnc4ccc(C(F)F)nn34)ncn2)CC2(CC2)C1(F)F (stereo not drawn) [II-775, N-((5-(6-(6-(difluoromethyl)imidazo[1,2-b]pyridazin-3-yl)pyrimidin-4-yl)-8,8-difluoro-5-azaspiro[2.5]octan-7-yl)methyl)methanesulfonamide] | 0.1 to 0.5 µM |  |  | 
CC1(C)CN(c2cc(-c3cnc4ccc(C(F)F)nn34)ncn2)C[C@@H](CNS(C)(=O)=O)O1 [II-776, (S)—N-((4-(6-(6-(difluoromethyl)imidazo[1,2-b]pyridazin-3-yl)pyrimidin-4-yl)-6,6-dimethylmorpholin-2-yl)methyl)methanesulfonamide] | 0.1 to 0.5 µM |  |  | 
CS(=O)(=O)NCC1CCCN(c2cc(-c3cnc4ccc(C(F)F)nn34)cc(OC3CNC3)n2)C1 (stereo not drawn) [II-779, N-((1-(6-(azetidin-3-yloxy)-4-(6-(difluoromethyl)imidazo[1,2-b]pyridazin-3-yl)pyridin-2-yl)piperidin-3-yl)methyl)methanesulfonamide] | > 0.5 µM |  |  | 
C[C@H]1C[C@H](c2c[nH]nc2F)CN(c2nccc(-c3cnc4cnc(C(F)(F)F)cn34)n2)C1 [IV-754, 3-(2-((3R,5S)-3-(3-fluoro-1H-pyrazol-4-yl)-5-methylpiperidin-1-yl)pyrimidin-4-yl)-6-(trifluoromethyl)imidazo[1,2-a]pyrazine] |  |  | < 0.5 µM | 0.01 to 1 µM
C[C@@H]1C[C@H](c2c[nH]nc2F)CN(c2nccc(-c3cnc4cnc(C(F)(F)F)cn34)n2)C1 [IV-757, 3-(2-((3R,5R)-3-(3-fluoro-1H-pyrazol-4-yl)-5-methylpiperidin-1-yl)pyrimidin-4-yl)-6-(trifluoromethyl)imidazo[1,2-a]pyrazine] |  |  | < 0.5 µM | 0.01 to 1 µM
Cc1n[nH]cc1[C@H]1C[C@@H](C)CN(c2nccc(-c3cnc4cnc(C(F)(F)F)cn34)n2)C1 [IV-758, 3-(2-((3R,5R)-3-methyl-5-(3-methyl-1H-pyrazol-4-yl)piperidin-1-yl)pyrimidin-4-yl)-6-(trifluoromethyl)imidazo[1,2-a]pyrazine] |  |  | < 0.5 µM | 0.01 to 1 µM
C[C@H]1C[C@H](c2c[nH]nc2F)CN(c2ccnc(-c3cnc4cnc(C(F)(F)F)cn34)n2)C1 [IV-764, 3-(4-((3R,5S)-3-(3-fluoro-1H-pyrazol-4-yl)-5-methylpiperidin-1-yl)pyrimidin-2-yl)-6-(trifluoromethyl)imidazo[1,2-a]pyrazine] |  |  | < 0.5 µM | 0.01 to 1 µM
C[C@@H]1C[C@@H](c2c[nH]nc2F)CN(c2ccnc(-c3cnc4cnc(C(F)(F)F)cn34)n2)C1 [IV-765] |  |  | < 0.5 µM | 0.01 to 1 µM
C[C@@H]1C[C@H](c2c[nH]nc2F)CN(c2ccnc(-c3cnc4cnc(C(F)(F)F)cn34)n2)C1 [IV-766] |  |  | < 0.5 µM | 0.01 to 1 µM
C[C@@H]1C[C@@H](c2cn[nH]c2)CN(c2ccnc(-c3cnc4cnc(C(F)(F)F)cn34)n2)C1 [IV-769, 3-(4-((3R,5S)-3-methyl-5-(1H-pyrazol-4-yl)piperidin-1-yl)pyrimidin-2-yl)-6-(trifluoromethyl)imidazo[1,2-a]pyrazine] |  |  | < 0.5 µM | 0.01 to 1 µM
C[C@@H]1C[C@H](c2cn[nH]c2)CN(c2ccnc(-c3cnc4cnc(C(F)(F)F)cn34)n2)C1 [IV-770, 3-(4-((3R,5R)-3-methyl-5-(1H-pyrazol-4-yl)piperidin-1-yl)pyrimidin-2-yl)-6-(trifluoromethyl)imidazo[1,2-a]pyrazine] |  |  | < 0.5 µM | 0.01 to 1 µM
C[C@H]1C[C@@H](c2cn[nH]c2)CN(c2ccnc(-c3cnc4cnc(C(F)(F)F)cn34)n2)C1 [IV-771, 3-(4-((3S,5S)-3-methyl-5-(1H-pyrazol-4-yl)piperidin-1-yl)pyrimidin-2-yl)-6-(trifluoromethyl)imidazo[1,2-a]pyrazine] |  |  | < 0.5 µM | < 0.01 µM
C[C@@H]1C[C@H](N=S(C)(C)=O)CN(c2ccnc(-c3cnc4cnc(C(F)F)cn34)n2)C1 [IV-772, (((3S,5R)-1-(2-(6-(difluoromethyl)imidazo[1,2-a]pyrazin-3-yl)pyrimidin-4-yl)-5-methylpiperidin-3-yl)imino)dimethyl-16-sulfanone] |  |  | 0.5 to 5 µM | 0.01 to 1 µM
Cc1n[nH]cc1[C@H]1C[C@H](O)CN(c2ccnc(-c3cnc4cnc(C(F)(F)F)cn34)n2)C1 [IV-774, (3S,5R)-5-(3-methyl-1H-pyrazol-4-yl)-1-(2-(6-(trifluoromethyl)imidazo[1,2-a]pyrazin-3-yl)pyrimidin-4-yl)piperidin-3-ol] |  |  | > 5 µM | 0.01 to 1 µM
Cc1n[nH]cc1[C@@H]1C[C@@H](O)CN(c2ccnc(-c3cnc4cnc(C(F)(F)F)cn34)n2)C1 [IV-775, (3R,5S)-5-(3-methyl-1H-pyrazol-4-yl)-1-(2-(6-(trifluoromethyl)imidazo[1,2-a]pyrazin-3-yl)pyrimidin-4-yl)piperidin-3-ol] |  |  | > 5 µM | 0.01 to 1 µM
Cc1n[nH]cc1[C@@H]1C[C@H](O)CN(c2ccnc(-c3cnc4cnc(C(F)(F)F)cn34)n2)C1 [IV-777, (3S,5S)-5-(3-methyl-1H-pyrazol-4-yl)-1-(2-(6-(trifluoromethyl)imidazo[1,2-a]pyrazin-3-yl)pyrimidin-4-yl)piperidin-3-ol] |  |  | 0.5 to 5 µM | 0.01 to 1 µM
